≈ marks a conversion by molar mass, not a printed value. Where two headings read alike, the source gives them in different places.
How the values were obtained:
Format in all cases: cell-based
E. faecalis MGH-2 = assay: Antibacterial microtitration MIC, E. faecalis MGH-2; settings: strain MGH-2; for MIC: Enterococcus faecalis, MGH2, Gram Positive Bacteria, read-out: Minimum Inhibitory Concentrations E. faecalis MGH-2
Method: (§1) Test A—Antibacterial Assays The compounds of the present invention were tested against an assortment of Gram-negative and Gram-positive organisms using standard microtitration techniques (Cohen et. al., Antimicrob., 1985; 28:766; Heifetz, et. al., Antimicrob., 1974; 6:124).

S. pneumo SV-1 = assay: Antibacterial microtitration MIC, S. pneumo SV-1; settings: Gram Positive Bacteria, strain SV-1; for MIC: read-out: Minimum Inhibitory Concentrations S. pneumo SV-1
Method: as §1

S. aureus UC-76 = assay: Antibacterial microtitration MIC, S. aureus UC-76; settings: strain UC-76; for MIC: Staphylococcus aureus, UC76, Gram Positive Bacteria, read-out: Minimum Inhibitory Concentrations S. aureus UC-76
Method: as §1

S pyogenes C203 = assay: Antibacterial microtitration MIC, S pyogenes C203; settings: Gram Positive Bacteria, strain C203; for MIC: read-out: Minimum Inhibitory Concentrations S pyogenes C203
Method: as §1

H. influenzae HI-3542 = assay: Antibacterial microtitration MIC, H. influenzae HI-3542; settings: strain HI-3542; for MIC: Haemophilus influenzae, HI3542, Gram Negative Bacteria, read-out: Minimum Inhibitory Concentrations H. influenzae HI-3542
Method: as §1

M. catarrhalis BC-3531 = assay: Antibacterial microtitration MIC, M. catarrhalis BC-3531; settings: strain BC-3531; for MIC: Moraxella catarrhalis, BC3531, Gram Negative Bacteria, read-out: Minimum Inhibitory Concentrations M. catarrhalis BC-3531; for Minimum Inhibitory Concentrations M. catarrhalis BC-3531: Gram Negative Bacteria
Method: as §1

E. coli 2026 = assay: Antibacterial microtitration MIC, E. coli 2026; settings: strain 2026; for MIC: read-out: Minimum Inhibitory Concentrations E. coli 2026
Method: as §1

[1] = Escherichia coli, Gram Negative Bacteria
[2] = Escherichia coli, 2026, Gram Negative Bacteria

| MIC (E. faecalis MGH-2) | MIC (S. pneumo SV-1) | MIC (S. aureus UC-76) | MIC (S pyogenes C203) | SMILES | MIC (H. influenzae HI-3542) | MIC (M. catarrhalis BC-3531) | also measured |
| --- | --- | --- | --- | --- | --- | --- | --- |
| 0.5 µg/mL (≈ 1.29 µM) | 0.125 µg/mL (≈ 0.323 µM) | 0.25 µg/mL (≈ 0.647 µM) | 0.125 µg/mL (≈ 0.323 µM) | Cc1c(N2CCC(C(N)CC#N)C2)c(F)cc2c(=O)n(N)c(=O)n(C3CC3)c12 (centres unmarked) [drawing 405] |  |  |  |
| 2 µg/mL (≈ 4.97 µM) | 0.5 µg/mL (≈ 1.24 µM) | 2 µg/mL (≈ 4.97 µM) | 0.5 µg/mL (≈ 1.24 µM) | COc1c(N2CCC(C(N)CC#N)C2)c(F)cc2c(=O)n(N)c(=O)n(C3CC3)c12 (centres unmarked) [drawing 410] |  |  |  |
| 32 µg/mL (≈ 77.2 µM) |  | 12 µg/mL (≈ 29 µM) | 32 µg/mL (≈ 77.2 µM) | Cc1c(N2CCC(C(N)C(C)(C)C#N)C2)c(F)cc2c(=O)n(N)c(=O)n(C3CC3)c12 (centres unmarked) [drawing 419] |  |  | Minimum Inhibitory Concentrations S. pneumo SV-1 (S. pneumo SV-1): 32 µg/mL |
| 1 µg/mL (≈ 2.26 µM) | 0.06 µg/mL (≈ 0.136 µM) | 0.25 µg/mL (≈ 0.565 µM) | 0.06 µg/mL (≈ 0.136 µM) | COc1c(N2CC(CNCCC#N)C3(CC3)C2)c(F)cc2c(=O)n(N)c(=O)n(C3CC3)c12 (centres unmarked) [drawing 421] |  |  |  |

Continued, compound first:

| SMILES | MIC (E. faecalis MGH-2) | MIC (S. pneumo SV-1) | MIC (S. aureus UC-76) | MIC (S pyogenes C203) | MIC (H. influenzae HI-3542) | MIC (M. catarrhalis BC-3531) | also measured |
| --- | --- | --- | --- | --- | --- | --- | --- |
| COc1c(N2CC[C@@H]([C@H](C)NCCC#N)C2)c(F)cc2c(=O)[nH]c(=O)n(C3CC3)c12 (single isomer, unassigned) [drawing 418] | 2 µg/mL (≈ 4.81 µM) | 0.25 µg/mL (≈ 0.602 µM) | 1 µg/mL (≈ 2.41 µM) | 0.5 µg/mL (≈ 1.2 µM) |  |  |  |
| Cc1c(N2C[C@@H](CNCCC#N)[C@H](C)C2)c(F)cc2c(=O)n(N)c(=O)n(C3CC3)c12 (stereo in doubt) |  |  |  |  | 2 µg/mL (≈ 4.83 µM) | 4 µg/mL (≈ 9.65 µM) | MIC (E. coli 2026; [1]): 8 µg/mL (≈ 19.3 µM) |
| Cc1c(N2C[C@H](CNCCC#N)[C@@H](C)C2)c(F)cc2c(=O)n(N)c(=O)n(C3CC3)c12 (stereo in doubt) |  |  |  |  | 4 µg/mL (≈ 9.65 µM) | 4 µg/mL (≈ 9.65 µM) | MIC (E. coli 2026; [1]): 8 µg/mL (≈ 19.3 µM) |
| Cc1c(N2CCC(C(N)CC#N)C2)c(F)cc2c(=O)n(N)c(=O)n(C3CC3)c12 (centres unmarked) [drawing 388] |  |  |  |  | 2 µg/mL (≈ 5.18 µM) | 0.5 µg/mL (≈ 1.29 µM) | MIC (E. coli 2026; [2]): 8 µg/mL (≈ 20.7 µM) |
| COc1c(N2CCC(C(N)CC#N)C2)c(F)cc2c(=O)n(N)c(=O)n(C3CC3)c12 (centres unmarked) [drawing 393] |  |  |  |  | 8 µg/mL (≈ 19.9 µM) | 16 µg/mL (≈ 39.8 µM) | MIC (E. coli 2026; [2]): 64 µg/mL (≈ 159 µM) |
| COc1c(N2C[C@@H]3CCC(NCCC#N)[C@@H]3C2)c(F)cc2c(=O)n(N)c(=O)n(C3CC3)c12 (some centres unmarked) [drawing 398] |  |  |  |  | 8 µg/mL (≈ 18.1 µM) | 64 µg/mL (≈ 145 µM) | MIC (E. coli 2026; [1]): 64 µg/mL (≈ 145 µM) |
| Cc1c(N2CC[C@@H](C(NCCC#N)c3ncco3)C2)c(F)cc2c(=O)n(N)c(=O)n(C3CC3)c12 (some centres unmarked) [drawing 399] |  |  |  |  | 4 µg/mL (≈ 8.56 µM) | 16 µg/mL (≈ 34.2 µM) | MIC (E. coli 2026; [1]): 16 µg/mL (≈ 34.2 µM) |
| Cc1c(N2CCC(C(N)C(C)(C)C#N)C2)c(F)cc2c(=O)n(N)c(=O)n(C3CC3)c12 (centres unmarked) [drawing 402] |  |  |  |  | 32 µg/mL (≈ 77.2 µM) |  | Minimum Inhibitory Concentrations M. catarrhalis BC-3531 (M. catarrhalis BC-3531): 5.25 µg/mL; MIC (E. coli 2026; [2]): 64 µg/mL (≈ 154 µM) |
| Cc1c(N2CCC(C(N)C(C)(C)C#N)C2)c(F)cc2c(=O)n(N)c(=O)n(C3CC3)c12 (centres unmarked) [drawing 403] |  |  |  |  |  |  | Minimum Inhibitory Concentrations H. influenzae HI-3542 (H. influenzae HI-3542; Gram Negative Bacteria): 32 µg/mL; Minimum Inhibitory Concentrations M. catarrhalis BC-3531 (M. catarrhalis BC-3531): 16 µg/mL; Minimum Inhibitory Concentrations E. coli 2026 (E. coli 2026; Gram Negative Bacteria): 64 µg/mL |
| COc1c(N2CC(CNCCC#N)C3(CC3)C2)c(F)cc2c(=O)n(N)c(=O)n(C3CC3)c12 (centres unmarked) [drawing 404] |  |  |  |  | 1 µg/mL (≈ 2.26 µM) | 8 µg/mL (≈ 18.1 µM) | MIC (E. coli 2026; [2]): 2 µg/mL (≈ 4.52 µM) |
| COc1c(N2C[C@@H]3CCC(NCCC#N)[C@@H]3C2)c(F)cc2c(=O)n(N)c(=O)n(C3CC3)c12 (some centres unmarked) [drawing 415] | 4 µg/mL (≈ 9.04 µM) | 0.5 µg/mL (≈ 1.13 µM) | 1 µg/mL (≈ 2.26 µM) | 1 µg/mL (≈ 2.26 µM) |  |  |  |
| Cc1c(N2CC[C@@H](C(NCCC#N)c3ncco3)C2)c(F)cc2c(=O)n(N)c(=O)n(C3CC3)c12 (some centres unmarked) [drawing 416] | 32 µg/mL (≈ 68.4 µM) | 8 µg/mL (≈ 17.1 µM) | 8 µg/mL (≈ 17.1 µM) | 8 µg/mL (≈ 17.1 µM) |  |  |  |
| Cc1c(N2CCC(C(N)C(C)(C)C#N)C2)c(F)cc2c(=O)n(N)c(=O)n(C3CC3)c12 (centres unmarked) [drawing 420] |  |  |  |  |  |  | Minimum Inhibitory Concentrations E. faecalis MGH-2 (E. faecalis MGH-2; Gram Positive Bacteria): 16 µg/mL; Minimum Inhibitory Concentrations S. pneumo SV-1 (S. pneumo SV-1): 8 µg/mL; Minimum Inhibitory Concentrations S. aureus UC-76 (S. aureus UC-76; Gram Positive Bacteria): 8 µg/mL; Minimum Inhibitory Concentrations S pyogenes C203 (S pyogenes C203): 16 µg/mL |

Source: patent US20070191333A1, “Antibacterial agents” (Warner Lambert Company LLC, priority 2003, published 2007)
